Experimental data published in BigSolDB 2.1.

CN1CCN(c2cc3c(cc2F)c(=O)c(C(=O)O)cn3-c2ccc(F)cc2)CC1
solubility (mole fraction)
Conditions	293.15 K	295.15 K	298.15 K	300.15 K	303.15 K	305.15 K	308.15 K	310.15 K	313.15 K
in acetone	0.0052	0.0058	0.0067	0.0073	0.0081	0.0087	0.0096	0.0104	0.011
in ethanol	0.0387	0.0435	0.0507	0.0559	0.0636	0.0683	0.0754	0.0795	0.0856
in methanol	0.0064	0.0068	0.0073	0.0077	0.0084	0.0088	0.0095	0.0099	0.0104
